Tests used:
[1] = test system: Mycobacterium tuberculosis H37Rv; assay: Alamar blue metabolic readout assay; format: cell-based; settings: M. tuberculosis H37Rv, GAS media
[2] = test system: Mycobacterium tuberculosis H37Rv; assay: Alamar blue metabolic readout assay; format: cell-based; settings: M. tuberculosis H37Rv, 7H12 media
[3] = test system: Mycobacterium tuberculosis H37Rv; assay: Low oxygen recovery assay; format: cell-based; settings: M. tuberculosis H37Rv, low oxygen "latent" conditions
[4] = Microsomal stability assay, mouse; settings: mouse hepatic microsomes
[5] = Microsomal stability assay, human; settings: human hepatic microsomes
[6] = Microsomal stability assay, marmoset; settings: marmoset hepatic microsomes

For `[2H]c1c(C([2H])([2H])[2H])cn2c(C(=O)NC([2H])([2H])c3ccc(C(F)(F)F)cc3)c(C([2H])([2H])[2H])nc2c1[2H]` [Compound 57, 2,6-Bis(Methyl-d3)-N-((4-(trifluoromethyl)phenyl)methyl-d2) imidazo[1,2-a]pyridine-7,8-d2-3-carboxamide], which “GAS MIC” value [1] is on record?
Its value is 5.7 ± 1.2 nM.

And the “7H12 MIC” value [2]?
The value was 6.7 ± 0.9 nM.

And the “LORA MIC” value [3]?
The value was >10,000 nM.

And the CLint [4]?
The CLint was 78 ml/min/g protein.

What about the CLint [5] of the same molecule?
The CLint was 32 ml/min/g protein.

And the Half-life ([5]; 2 μM compound, 0.5 mg/mL)?
Its Half-life is 43 min.

What about the CLint [6] of the same molecule?
Its CLint is 60 ml/min/g protein.

And the Half-life ([6]; 2 μM compound, 0.5 mg/mL)?
The Half-life was 23 min.

— article PMC10262914 (Bioorganic chemistry, 2022)
